In patent US9630922B2, “3-spiro-7-hydroxamic acid tetralins as HDAC inhibitors” (Forma Therapeutics, Inc., priority 2015, dated 2017):

Target: T1, HDAC6 (Homo sapiens, UniProt Q9UBN7)
T1 construct: Full length human recombinant HDAC6 protein was expressed in baculoviral system; made in house; host or cells: baculoviral system
T1 sequence (Q9UBN7 1-1215): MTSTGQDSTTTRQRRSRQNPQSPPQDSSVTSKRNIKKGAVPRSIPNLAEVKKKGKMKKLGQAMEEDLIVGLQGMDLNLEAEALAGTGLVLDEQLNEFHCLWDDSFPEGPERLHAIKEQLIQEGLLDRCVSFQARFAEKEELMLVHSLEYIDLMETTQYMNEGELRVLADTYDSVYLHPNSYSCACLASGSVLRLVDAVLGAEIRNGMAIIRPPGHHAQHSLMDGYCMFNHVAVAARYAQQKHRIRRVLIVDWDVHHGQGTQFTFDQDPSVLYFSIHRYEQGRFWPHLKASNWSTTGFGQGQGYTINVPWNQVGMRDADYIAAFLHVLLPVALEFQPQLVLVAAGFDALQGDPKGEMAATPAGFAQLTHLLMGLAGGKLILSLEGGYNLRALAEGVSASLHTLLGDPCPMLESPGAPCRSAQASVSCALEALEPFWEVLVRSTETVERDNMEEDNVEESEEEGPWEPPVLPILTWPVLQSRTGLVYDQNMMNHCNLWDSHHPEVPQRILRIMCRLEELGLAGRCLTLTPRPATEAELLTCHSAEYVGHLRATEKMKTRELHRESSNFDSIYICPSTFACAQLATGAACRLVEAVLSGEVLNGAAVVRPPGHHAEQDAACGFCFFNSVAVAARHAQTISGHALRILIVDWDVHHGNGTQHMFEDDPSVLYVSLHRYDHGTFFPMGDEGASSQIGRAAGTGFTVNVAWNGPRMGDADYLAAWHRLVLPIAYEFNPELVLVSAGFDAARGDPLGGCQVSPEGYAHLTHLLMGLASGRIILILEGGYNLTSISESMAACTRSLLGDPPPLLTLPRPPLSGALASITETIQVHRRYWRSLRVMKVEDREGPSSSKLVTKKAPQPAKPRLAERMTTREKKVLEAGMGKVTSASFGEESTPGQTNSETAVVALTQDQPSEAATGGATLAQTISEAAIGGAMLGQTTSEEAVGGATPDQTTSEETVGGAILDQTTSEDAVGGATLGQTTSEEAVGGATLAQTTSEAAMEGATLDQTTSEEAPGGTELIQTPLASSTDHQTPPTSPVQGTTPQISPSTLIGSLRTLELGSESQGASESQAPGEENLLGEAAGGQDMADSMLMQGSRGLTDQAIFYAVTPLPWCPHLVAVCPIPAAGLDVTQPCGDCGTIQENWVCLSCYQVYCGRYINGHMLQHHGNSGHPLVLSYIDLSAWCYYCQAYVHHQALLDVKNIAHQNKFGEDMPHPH
Assay: In vitro Histone Deacetylase Assay (enzymatic HDAC6 electrophoretic mobility shift assay)
Format: biochemical
Settings: full length human recombinant HDAC6, 1 nM enzyme, 2 μM peptide substrate RHKK(Ac)-NH2, 25° C.; read-out: HDAC6 activity range
In short: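 Deacetylation was read by microfluidic mobility shift as product/(substrate+product) peak ratio and normalised to 0% and 100% inhibition controls. Reactions used 1 nM baculovirus-expressed full-length human HDAC6 and 2 μM labelled RHKK(Ac)-NH2 in pH 7.5 HEPES buffer with 1% DMSO at 25 °C. IC50 was from 4-parameter fits of 12 concentrations.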

Structure (SMILES)	IC50
O=C(NO)c1ccc2c(c1)CC[C@]1(CCN(c3ccccc3)C1=O)C2 [Compound I-26, (R)-N-hydroxy-2′-oxo-1′-phenyl-3,4-dihydro-1H-spiro[naphthalene-2,3′-pyrrolidine]-6-carboxamide]	≤ 100 nM
O=C(NO)c1ccc2c(c1)CC[C@]1(CCN(Cc3ccccc3C(F)(F)F)C1=O)C2 [Compound I-39, (R)-N-hydroxy-2′-oxo-1′-(2-(trifluoromethyl)benzyl)-3,4-dihydro-1H-spiro[naphthalene-2,3′-pyrrolidine]-6-carboxamide]	≤ 100 nM
COc1ccccc1CN1CC[C@]2(CCc3cc(C(=O)NO)ccc3C2)C1=O [Compound I-44, (R)-N-hydroxy-1′-(2-methoxybenzyl)-2′-oxo-3,4-dihydro-1H-spiro[naphthalene-2,3′-pyrrolidine]-6-carboxamide]	≤ 100 nM
N#Cc1ccc(N2CC[C@@]3(CCc4cc(C(=O)NO)ccc4C3)C2=O)cc1 [Compound I-173, (S)-1′-(4-cyanophenyl)-N-hydroxy-2′-oxo-3,4-dihydro-1H-spiro[naphthalene-2,3′-pyrrolidine]-6-carboxamide]	≤ 100 nM
O=C(NO)c1ccc2c(c1)CC[C@]1(CCCN(C3CCCC3)C1=O)C2 [Compound I-200, (S)-1′-cyclopentyl-N-hydroxy-2′-oxo-3,4-dihydro-1H-spiro[naphthalene-2,3′-piperidine]-6-carboxamide]	≤ 100 nM
CCN1CC[C@]2(CCc3cc(C(=O)NO)ccc3C2)C1=O [Compound I-161, (R)-1′-ethyl-N-hydroxy-2′-oxo-3,4-dihydro-1H-spiro[naphthalene-2,3′-pyrrolidine]-6-carboxamide]	≤ 100 nM
O=C(NO)c1ccc2c(c1)CC[C@]1(CCN(Cc3c(Cl)cccc3Cl)C1=O)C2 [Compound I-49, (R)-1′-(2,6-dichlorobenzyl)-N-hydroxy-2′-oxo-3,4-dihydro-1H-spiro[naphthalene-2,3′-pyrrolidine]-6-carboxamide]	≤ 100 nM
Cc1ccncc1N1CC[C@@]2(CCc3cc(C(=O)NO)ccc3C2)C1=O [Compound I-137, (S)-N-hydroxy-1′-(4-methylpyridin-3-yl)-2′-oxo-3,4-dihydro-1H-spiro[naphthalene-2,3′-pyrrolidine]-6-carboxamide]	≤ 100 nM
O=C(NO)c1ccc2c(c1)CC[C@@]1(CCN(Cc3ccccc3C(F)(F)F)C1=O)C2 [Compound I-67, (S)-N-hydroxy-2′-oxo-1′-(2-(trifluoromethyl)benzyl)-3,4-dihydro-1H-spiro[naphthalene-2,3′-pyrrolidine]-6-carboxamide]	100 to 500 nM
O=C(NO)c1ccc2c(c1)CCC1(CCN(S(=O)(=O)C3CCCCC3)CC1)O2 [II-6, 1′-(cyclohexylsulfonyl)-N-hydroxyspiro[chromane-2,4′-piperidine]-6-carboxamide]	100 to 500 nM
COc1cc(N2CC[C@]3(CCc4cc(C(=O)NO)ccc4C3)C2=O)ccc1F [Compound I-128, (2R)--(4-fluoro-3-methoxyphenyl)-N-hydroxy-2′-oxo-3,4-dihydro-1H-spiro[naphthalene-2,3′-pyrrolidine]-6-carboxamide]	≤ 100 nM
CN1CCCC2(CCc3cc(C(=O)NO)ccc3C2)C1=O (stereo not shown) [Compound I-178, N-hydroxy-1′-methyl-2′-oxo-3,4-dihydro-1H-spiro[naphthalene-2,3′-piperidine]-6-carboxamide]	≤ 100 nM
O=C(NO)c1ccc2c(c1)CCC1(CC(=O)N(CC(F)(F)F)C1)C2 (single isomer, unassigned) [Compound I-220]	≤ 100 nM
Cc1ccc(N2CC[C@@]3(CCc4cc(C(=O)NO)ccc4C3)C2=O)cn1 [Compound I-134, (S)-N-hydroxy-1′-(6-methylpyridin-3-yl)-2′-oxo-3,4-dihydro-1H-spiro[naphthalene-2,3′-pyrrolidine]-6-carboxamide]	≤ 100 nM
O=C(NO)c1ccc2c(c1)CC[C@]1(CCN(c3cncc(F)c3)C1=O)C2 [Compound I-110, (R)-1′-(5-fluoropyridin-3-yl)-N-hydroxy-2′-oxo-3,4-dihydro-1H-spiro[naphthalene-2,3′-pyrrolidine]-6-carboxamide]	≤ 100 nM
COc1ccccc1CN1CC[C@@]2(CCc3cc(C(=O)NO)ccc3C2)C1=O [Compound I-72, (S)-N-hydroxy-1′-(2-methoxybenzyl)-2′-oxo-3,4-dihydro-1H-spiro[naphthalene-2,3′-pyrrolidine]-6-carboxamide]	≤ 100 nM
O=C(NO)c1ccc2c(c1)CCC1(CC(=O)N(CC3COC3)C1)C2 (single isomer, unassigned) [Compound I-215]	≤ 100 nM
COc1cc(N2CC[C@@]3(CCc4cc(C(=O)NO)ccc4C3)C2=O)ccc1F [Compound I-129, (2S)-1′-(4-fluoro-3-methoxyphenyl)-N-hydroxy-2′-oxo-3,4-dihydro-1H-spiro[naphthalene-2,3′-pyrrolidine]-6-carboxamide]	≤ 100 nM
COc1cccc(CN2CC[C@]3(CCc4cc(C(=O)NO)ccc4C3)C2=O)c1 [Compound I-51, (R)-N-hydroxy-1′-(3-methoxybenzyl)-2′-oxo-3,4-dihydro-1H-spiro[naphthalene-2,3′-pyrrolidine]-6-carboxamide]	≤ 100 nM
O=C(NO)c1ccc2c(c1)CC[C@@]1(CCN(c3ccccc3F)C1=O)C2 [Compound I-157, (S)-1′-(2-fluorophenyl)-N-hydroxy-2′-oxo-3,4-dihydro-1H-spiro[naphthalene-2,3′-pyrrolidine]-6-carboxamide]	≤ 100 nM
COCCN1CC[C@@]2(CCc3cc(C(=O)NO)ccc3C2)C1=O [Compound I-64, (S)-N-hydroxy-1′-(2-methoxyethyl)-2′-oxo-3,4-dihydro-1H-spiro[naphthalene-2,3′-pyrrolidine]-6-carboxamide]	100 to 500 nM
O=C(NO)c1ccc2c(c1)CC[C@@]1(CCN(CC3CCC3)C1=O)C2 [Compound I-61, (S)-1′-(cyclobutylmethyl)-N-hydroxy-2′-oxo-3,4-dihydro-1H-spiro[naphthalene-2,3′-pyrrolidine]-6-carboxamide]	100 to 500 nM
